Assay results published in publication PMC8698482, “WPK5, a Novel Kunitz-Type Peptide from the Leech Whitmania pigra Inhibiting Factor XIa, and Its Loop-Replaced Mutant to Improve Potency” (Biomedicines, 2021).

Test system: C57BL/6J mice
Test: FeCl3-induced carotid artery thrombosis model
Format: in vivo
Conditions: heparin sodium 2.7 mg/kg by tail vein 10 min before 6% FeCl3; observed 30 min; n = 6
Protocol: The in vivo antithrombotic activity of WPK5-Mut was evaluated by using a FeCl3-induced carotid artery thrombosis model in mice. Mice (C57BL/6J, males, 18–22 g) were anesthetized by intraperitoneal injection of chloral hydrate (5%, 10 mL/kg) and then placed in a supine position on a heating pad (37 °C) to maintain body temperature. An incision was made in the middle of the mouse’s neck and the fascia and muscle were gradually separated to expose the carotid artery. A rubber strip (4 × 10 mm) was placed under the artery to separate it from the surrounding tissues, and mice were injected heparin sodium (2.7 mg/kg), WPK5-Mut (0.75, 1.5 and 3 mg/kg) or saline through the tail vein and placed under a laser speckle contrast imaging (moor FLPI-2, Moor Instruments Limited, Millwey, Axminster, Devon, EX13 5HU, UK) to observe the carotid blood flow. […] The occlusion time was defined as the time from the removal of the FeCl3 saturated filter paper to the blockage of the vessel for at least 3 consecutive min [44]. If a vessel is blocked at a certain time for 3 consecutive min, this time is recorded as occlusion time, and if no blockage occurs within 30 min, the occlusion time is recorded as 30 min. The blood flow was analyzed by moorFLPI ReviewV50 software.

## heparin sodium
  occlusion time: > 30 min
